Data reported in patent publication US20110136665A1.

Columns and labels:
Leptosphaeria nodorum = experiment: Activity against Septoria nodorum blotch of wheat caused by Leptosphaeria nodorum
Description: (§1) The mixture was then made up with water to 100 ml.
The next day, the pots were inoculated with an aqueous spore suspension of Leptosphaeria nodorum (syn. Stagonospora nodorum, Septoria nodorum). The plants were then placed in a chamber at 20° C. and maximum atmospheric humidity.

Alternaria solani = experiment: Persistency against early blight on tomatoes caused by Alternaria solani, 5 day protective treatment; conditions: tomato
Description: as §1
To test for persistency, the leaves were infected with an aqueous spore suspension of Alternaria solani in a 2% strength biomalt solution having a density of 0.17×10^6 spores/ml only after 5 days. The plants were then placed in a water-vapor-saturated chamber at temperatures between 20 and 22° C.
Evaluation was carried out analogously to Example 1.

| SMILES | Efficacy in % of the untrated control (Leptosphaeria nodorum; 0.4 ppm in spray liquor) | Efficacy in % of the untrated control (Leptosphaeria nodorum; 0.8 ppm in spray liquor) | Efficacy in % of the untrated control (Leptosphaeria nodorum; 1.6 ppm in spray liquor) | Efficacy in % of the untrated control (Alternaria solani; 0.8 ppm in spray liquor) | Efficacy in % of the untrated control (Alternaria solani; 1.6 ppm in spray liquor) | Efficacy in % of the untrated control (Alternaria solani; 3.1 ppm in spray liquor) | Efficacy in % of the untrated control (Alternaria solani; 6.25 ppm in spray liquor) | Efficacy in % of the untrated control (Alternaria solani; 25 ppm in spray liquor) | Efficacy in % of the untrated control (Leptosphaeria nodorum; 3.1 ppm in spray liquor) | Efficacy in % of the untrated control (Leptosphaeria nodorum; 12.5 ppm in spray liquor) |
| --- | --- | --- | --- | --- | --- | --- | --- | --- | --- | --- |
| Fc1ccc([C@]2(Cn3cncn3)O[C@H]2c2ccccc2Cl)cc1 (racemic) [epoxiconazole, (2RS,3SR)-1-[3-(2-chlorophenyl)-2,3-epoxy-2-(4-fluorophenyl)propyl]-1H-1,2,4-triazole] | 0% | 0% | 33% | 0% | 0% | 0% | 0% | 0% | – | – |
| O=C(Nc1ccccc1-c1ccc(Cl)cc1)c1cccnc1Cl [boscalid, 2-chloro-N-(4′-chlorobiphenyl-2-yl)nicotinamide] | – | – | 0% | – | – | – | 0% | – | 11% | 33% |
| CC1(C)CCC(Cc2ccc(Cl)cc2)C1(O)Cn1cncn1 (stereo not drawn) [metconazole, 5-(4-chlorobenzyl)-2,2-dimethyl-1-[1,2,4]triazol-1-ylmethylcyclopentanol] | 0% | 0% | 56% | – | – | – | – | – | – | – |
